This is an account of results in patent US20260062443A1 (ALEXION PHARMACEUTICALS, INC., priority 2022, published 2026).

The test concerns the target T1, Human complement C1s enzyme (Homo sapiens, UniProt P09871).
T1 sequence (P09871 438-688 limits assumed): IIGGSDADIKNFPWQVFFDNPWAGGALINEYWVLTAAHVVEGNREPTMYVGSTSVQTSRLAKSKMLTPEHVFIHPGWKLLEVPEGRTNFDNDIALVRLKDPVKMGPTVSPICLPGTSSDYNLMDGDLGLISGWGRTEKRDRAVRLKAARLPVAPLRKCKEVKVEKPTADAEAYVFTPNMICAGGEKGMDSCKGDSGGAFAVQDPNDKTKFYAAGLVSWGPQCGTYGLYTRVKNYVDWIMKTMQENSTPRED
T1 sequence (P09871 16-437 partner limits assumed): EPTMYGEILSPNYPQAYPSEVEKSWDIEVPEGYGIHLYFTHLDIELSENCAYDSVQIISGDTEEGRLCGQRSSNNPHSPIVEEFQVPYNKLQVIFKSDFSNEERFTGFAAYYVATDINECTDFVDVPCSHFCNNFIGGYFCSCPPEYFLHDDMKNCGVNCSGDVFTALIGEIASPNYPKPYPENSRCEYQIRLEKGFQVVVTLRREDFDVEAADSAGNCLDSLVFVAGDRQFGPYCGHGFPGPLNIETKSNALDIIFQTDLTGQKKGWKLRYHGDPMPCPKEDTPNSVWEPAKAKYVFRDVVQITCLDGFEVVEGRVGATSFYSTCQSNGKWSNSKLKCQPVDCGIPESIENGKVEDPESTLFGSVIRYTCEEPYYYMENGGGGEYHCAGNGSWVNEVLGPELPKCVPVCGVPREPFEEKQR
The test is described as follows: Human C1s enzyme assay. The class given is biochemical. The procedure, abridged:
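Serum-purified human C1s (1.16 nM final) preincubated 5 min at room temperature with compound in 50 mM Tris, 1 M NaCl, pH 7.5. Z-L-Lys-SBzl and DTNB added at 100 μM each; A405 followed every 30 s for 30 min, and IC50 obtained by nonlinear regression of reaction rates.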

The mark [1] stands for this setting: human complement C1s enzyme 1.16 nM, substrate Z-L-Lys-SBzl 100 μM, 5 min preincubation, read-out: IC50 (Stars), C1s Inhibiting Activity.

Like-named read-outs stand apart in the source and are kept apart here. Some results are limits rather than exact numbers.

For `C[C@@H](NC(=O)[C@@H]1CC2(CN1C(=O)CN1Cc3cc(-c4ccc(F)cc4)ccc3C1=O)OCCO2)c1cc2cnccc2[nH]1` [Compound 123, (S)-N-((R)-1-(1H-pyrrolo[3,2-c]pyridin-2-yl)ethyl)-7-(2-(5-(4-fluorophenyl)-1-oxoisoindolin-2-yl)acetyl)-1,4-dioxa-7-azaspiro[4.4]nonane-8-carboxamide], the IC50 (usually the concentration needed to halve the response being measured) under setting [1] is 100 to 1000 nM. Turning to `C[C@@]12C[C@@H](C(=O)NCc3cc4cnccc4[nH]3)N(C(=O)CNC(=O)c3cccc(Oc4ccc(F)cc4)c3)[C@@H]1C2` [Compound 155, (1R,3S,5R)-N-((1H-pyrrolo[3,2-c]pyridin-2-yl)methyl)-2-((3-(4-fluorophenoxy)benzoyl)glycyl)-5-methyl-2-azabicyclo[3.1.0]hexane-3-carboxamide], under setting [1], the IC50 is 100 to 1000 nM. As to `C[C@@H](NC(=O)[C@@H]1C[C@@H](OC(F)F)CN1C(=O)CN1Cc2cc(-c3ccc(F)cc3Cl)ccc2C1=O)c1cc2cnccc2[nH]1` [Compound 124, (2S,4R)-N-((R)-1-(1H-pyrrolo[3,2-c]pyridin-2-yl)ethyl)-1-(2-(5-(2-chloro-4-fluorophenyl)-1-oxoisoindolin-2-yl)acetyl)-4-(difluoromethoxy)pyrrolidine-2-carboxamide], the IC50 under setting [1] is less than 100 nM. With `O=C(NCC(=O)N1C[C@H](OC(F)F)C[C@H]1C(=O)NCc1cc2cnccc2s1)c1cccc(Oc2ccc(F)cc2)c1` [Compound 254, (2S,4R)-4-(difluoromethoxy)-1-((3-(4-fluorophenoxy)benzoyl)glycyl)-N-(thieno[3,2-c]pyridin-2-ylmethyl)pyrrolidine-2-carboxamide], under setting [1], the IC50 was less than 100 nM. In the case of `O=C(NCC(=O)N1CC2(C[C@H]1C(=O)NCc1cc3cnccc3[nH]1)OCCO2)c1cccc(Oc2ccc(F)cc2)c1` [Compound 157, (S)-N-((1H-pyrrolo[3,2-c]pyridin-2-yl)methyl)-7-((3-(4-fluorophenoxy)benzoyl)glycyl)-1,4-dioxa-7-azaspiro[4.4]nonane-8-carboxamide], the IC50 under setting [1] was less than 100 nM. On the same count and under the same terms, to `C[C@@H](NC(=O)[C@@H]1C[C@@H](OC(F)F)CN1C(=O)CN1Cc2cc(-c3ccc(F)cc3)ccc2C1=O)c1cc2cnccc2[nH]1` [Compound 101, (2S,4R)-N-((R)-1-(1H-pyrrolo[3,2-c]pyridin-2-yl)ethyl)-4-(difluoromethoxy)-1-(2-(5-(4-fluorophenyl)-1-oxoisoindolin-2-yl)acetyl)pyrrolidine-2-carboxamide] belongs less than 100 nM. Same read-out and setting: the same measure for `O=C(NCC(=O)N1C[C@H](OC(F)F)C[C@H]1C(=O)NCc1ccc2nc[nH]c2c1)c1ccc2c(c1)Oc1ccccc1S2` [Compound 193, (2S,4R)-N-((1H-benzo[d]imidazol-6-yl)methyl)-4-(difluoromethoxy)-1-((phenoxathiine-3-carbonyl)glycyl)pyrrolidine-2-carboxamide]: more than 1000 nM.

With `C[C@@H](NC(=O)[C@@H]1C[C@@H](OC(F)F)CN1C(=O)CNC(=O)c1ccc(Oc2ccccc2)cc1)c1cc2cnccc2s1` [Compound 209, (2S,4R)-4-(difluoromethoxy)-1-((4-phenoxybenzoyl)glycyl)-N-((R)-1-(thieno[3,2-c]pyridin-2-yl)ethyl)pyrrolidine-2-carboxamide], under setting [1], the IC50 was 100 to 1000 nM.

`CO[C@@H]1C[C@@H](C(=O)N[C@H](C)c2cc3cnccc3[nH]2)N(C(=O)CNC(=O)c2ccc3c(c2)-c2ccccc2C3(F)F)C1` [Compound 71, (2S,4R)-N-((R)-1-(1H-pyrrolo[3,2-c]pyridin-2-yl)ethyl)-1-((9,9-difluoro-9H-fluorene-3-carbonyl)glycyl)-4-methoxypyrrolidine-2-carboxamide]: under setting [1], the half-maximal inhibitory concentration (IC50) is less than 100 nM. `C[C@@H](NC(=O)[C@@H]1C[Si](C)(C)CN1C(=O)CNC(=O)c1ccc2c(c1)Oc1ccccc1S2)c1cc2cnccc2[nH]1` [Compound 168, (R)-N-((R)-1-(1H-pyrrolo[3,2-c]pyridin-2-yl)ethyl)-3,3-dimethyl-1-((phenoxathiine-3-carbonyl)glycyl)-1,3-azasilolidine-5-carboxamide] returned a concentration for half-maximal inhibition (IC50) of less than 100 nM. As to `C[C@@]12C[C@@H]1N(C(=O)CNC(=O)CCCOc1ccccc1)[C@H](C(=O)NCc1cc3cnccc3[nH]1)C2` [Compound 58, (1S,3S,5S)-N-((1H-pyrrolo[3,2-c]pyridin-2-yl)methyl)-5-methyl-2-((4-phenoxybutanoyl)glycyl)-2-azabicyclo[3.1.0]hexane-3-carboxamide], under setting [1], the 50% inhibitory concentration (IC50) is less than 100 nM. Still for that read-out and setting: to `Cc1ccc2cc(C(=O)NCC(=O)N3CC4(C[C@H]3C(=O)NCc3cc5cnccc5[nH]3)OCCO4)sc2c1` [Compound 281, (S)-N-((1H-pyrrolo[3,2-c]pyridin-2-yl)methyl)-7-((6-methylbenzo[b]thiophene-2-carbonyl)glycyl)-1,4-dioxa-7-azaspiro[4.4]nonane-8-carboxamide] belongs 100 to 1000 nM; to `C[C@@H](NC(=O)[C@@H]1C[C@@H](S(C)(=O)=O)CN1C(=O)CNC(=O)c1ccc2c(c1)Oc1ccccc1S2)c1cc2cnccc2[nH]1` [Compound 238, (2S,4R)-N-((R)-1-(1H-pyrrolo[3,2-c]pyridin-2-yl)ethyl)-4-(methylsulfonyl)-1-((phenoxathiine-3-carbonyl)glycyl)pyrrolidine-2-carboxamide], less than 100 nM. Still for that read-out and setting: the same measure for `C[C@@]12C[C@@H]1N(C(=O)CNC(=O)CCCOc1ccccc1)[C@H](C(=O)NCCCn1ccnc1)C2` [Compound 59, (1S,3S,5S)-N-(3-(1H-imidazol-1-yl)propyl)-5-methyl-2-((4-phenoxybutanoyl)glycyl)-2-azabicyclo[3.1.0]hexane-3-carboxamide]: more than 1000 nM; for `C[C@@]12C[C@@H]1N(C(=O)CNC(=O)c1cccc(Oc3ccc(F)cc3)c1)[C@H](C(=O)NCc1cc3cnccn3c1)C2` [Compound 269, (1S,3S,5S)-2-((3-(4-fluorophenoxy)benzoyl)glycyl)-5-methyl-N-(pyrrolo[1,2-a]pyrazin-7-ylmethyl)-2-azabicyclo[3.1.0]hexane-3-carboxamide]: less than 100 nM; for `O=C(NCC(=O)N1C[C@H](OC(F)F)C[C@H]1C(=O)NCc1ccc2ocnc2c1)c1ccc2c(c1)Oc1ccccc1S2` [Compound 282, (2S,4R)-N-(benzo[d]oxazol-5-ylmethyl)-4-(difluoromethoxy)-1-((phenoxathiine-3-carbonyl)glycyl)pyrrolidine-2-carboxamide]: more than 1000 nM. Same read-out and setting: the same measure for `O=C(NCC(=O)N1CC2(C[C@H]1C(=O)NCc1cc3cnccc3[nH]1)OCCO2)c1ccc(-c2ccccc2)cn1` [Compound 107, (S)-N-((1H-pyrrolo[3,2-c]pyridin-2-yl)methyl)-7-((5-phenylpicolinoyl)glycyl)-1,4-dioxa-7-azaspiro[4.4]nonane-8-carboxamide]: less than 100 nM; for `O=C(NCC(=O)N1C[C@H](OC(F)F)C[C@H]1C(=O)NCc1ccc2ncoc2c1)c1ccc2c(c1)Oc1ccccc1S2` [Compound 221, (2S,4R)-N-(benzo[d]oxazol-6-ylmethyl)-4-(difluoromethoxy)-1-((phenoxathiine-3-carbonyl)glycyl)pyrrolidine-2-carboxamide]: more than 1000 nM; for `O=C(NCC(=O)N1CC=C[C@H]1C(=O)NCc1cc2cnccc2[nH]1)c1ccc2c(c1)Oc1ccccc1S2` [Compound 261, (S)-N-((1H-pyrrolo[3,2-c]pyridin-2-yl)methyl)-1-((phenoxathiine-3-carbonyl)glycyl)-2,5-dihydro-1H-pyrrole-2-carboxamide]: less than 100 nM. Consider `Cc1ccsc1Oc1cccc(C(=O)NCC(=O)N2C[C@H](OC(F)F)C[C@H]2C(=O)NCc2cc3cnccc3[nH]2)c1` [Compound 385, (2S,4R)-N-((1H-pyrrolo[3,2-c]pyridin-2-yl)methyl)-4-(difluoromethoxy)-1-((3-((3-methylthiophen-2-yl)oxy)benzoyl)glycyl) pyrrolidine-2-carboxamide], for which the IC50 under setting [1] is less than 100 nM. Same read-out and setting: to `COC[C@@]1(F)C[C@@H](C(=O)N[C@H](C)c2cc3cnccc3[nH]2)N(C(=O)CNC(=O)c2ccc(Oc3ccccc3)cc2)C1` [Compound 40, (2S,4R)-N-((R)-1-(1H-pyrrolo[3,2-c]pyridin-2-yl)ethyl)-4-fluoro-4-(methoxymethyl)-1-((4-phenoxybenzoyl)glycyl) pyrrolidine-2-carboxamide] belongs 100 to 1000 nM.

Turning to `O=C(NCC(=O)N1CC2(C[C@H]1C(=O)NCc1cc3cnccc3[nH]1)OCCO2)c1ccc2c(c1)Sc1ccccc1O2` [Compound 24, (S)-N-((1H-pyrrolo[3,2-c]pyridin-2-yl)methyl)-7-((phenoxathiine-2-carbonyl)glycyl)-1,4-dioxa-7-azaspiro[4.4]nonane-8-carboxamide], under setting [1], the IC50 is less than 100 nM. The same measure, in the same setting: to `C[C@@H](NC(=O)[C@@H]1C[C@]2(C)C[C@@H]2N1C(=O)CNC(=O)CCCOc1ccccc1)c1cc2cnccc2[nH]1` [Compound 56, (1S,3S,5S)-N-((R)-1-(1H-pyrrolo[3,2-c]pyridin-2-yl)ethyl)-5-methyl-2-((4-phenoxybutanoyl)glycyl)-2-azabicyclo[3.1.0]hexane-3-carboxamide] belongs 100 to 1000 nM.
